# Assay results reported in patent US20210393645A1, “TREATMENT FOR PROGRESSIVE MULTIPLE SCLEROSIS” (UTI LIMITED PARTNERSHIP, priority 2016, published 2021).
# Structures can show the parent of a compound that is named as a salt. Positions of bridges follow the written chain, without caps; N, C: chain ends. Non-standard residues stand in square brackets, D forms with d. Residues, ends and D or L forms follow the SMILES beside them. *: point of attachment. Ileψ(thiazoline)Cys = CC[C@H](C)[C@H](N)C1=N[C@H](C(=O)*)CS1; dOrn = NCCC[C@@H](N)C(=O)O
# System: human neurons
# Test: Iron (FeSO4) mediated neurotoxicity screening, MAP-2 positive neurons counted
# Type: cell-based
# Details: Homo sapiens, Neuron, 24 h, read-out: Drug % control (mean): number of neurons normalized to untreated control
# Method: Human neurons were isolated from brain tissues of therapeutically aborted 15-20 week old fetuses, in accordance with ethics approval of the University of Calgary ethics committee, after written informed consent of the pregnant donors. Neurons were isolated as previously described (Vecil et al., 2000) brain specimens were washed in phosphate buffered saline (PBS) to remove blood, followed by removal of meninges. […] Thereafter, the digestion was stopped by addition of 4 ml fetal calf serum (FCS). […] Cells were cultured in feeding medium of minimal essential medium (MEM) supplemented with 10% fetal bovine serum (FBS), 1 μM sodium pyruvate, 10 μM glutamine, 1× non-essential amino acids, 0.1% dextrose and 1% penicillin/streptomycin (all culture supplements from Invitrogen, Burlington, Canada). […] For experiments, the neuron-enriched cultures were retrypsinized and cells were plated in poly-L-ornithine pre-coated 96-well plates at a density of 100,000 cells/well in 100 μl of the complete medium supplemented with cytosine arabinoside. […] All conditions were performed in quadruplicates. A day later cells were fixed using 4% paraformaldehyde (PFA) and stored in PBS in 4° C.
# Briefly, there were 80 compounds located in specific wells on each plate (e. g. B07). […] Each compound was supplied at a concentration of 10 mM dissolved in DMSO.
# After filtering with a 0.2 μm filter, FeSO4 was added to cells in a final concentration of 25-50 μM in a volume of 50 μl medium to the cells. Rotenone was dissolved in dimethyl sulfoxide (DMSO) and used in a final concentration of 10 μM.
# Staining was performed at room temperature. A blocking buffer was first introduced for 1 h followed by incubation with primary antibody overnight in 4° C.
# Cell nuclei were stained with Hoechst S769121 (nuclear yellow). Cells were stored in 4° C. in the dark before imaging.
# Images were taken using the automated ImageXpress® imaging system (Molecular Devices, Sunnyvale, Calif.) through a 10x objective microscope lens, displaying 4 or 9 sites per well. […] Cells were defined according to fluorescence intensity and size at different wavelengths. Data from all sites per well were averaged to one data point.
# Neurons were pre-incubated with each compound for 1 h followed by application of FeSO4.
row,SMILES,viability at 10 µM
1,CC1=C(C(=O)O)N2C(=O)[C@@H](NC(=O)[C@H](N)c3ccccc3)[C@H]2SC1 [CEPHALEXIN],38.9%
2,CC(C)C[C@H](CN)CC(=O)O [PREGABALIN],47.8%
3,Clc1cccc(Cl)c1N=C1NCCN1 [CLONIDINE HYDROCHLORIDE],7.47%
4,O=C(O)c1cn(C2CC2)c2cc(N3CCNCC3)c(F)cc2c1=O [CIPROFLOXACIN],41%
5,CO[C@H]1/C=C/O[C@@]2(C)Oc3c(C)c(O)c4c(O)c(c(/C=N/N5CCN(C)CC5)c(O)c4c3C2=O)NC(=O)/C(C)=C\C=C\[C@H](C)[C@H](O)[C@@H](C)[C@@H](O)[C@@H](C)[C@H](OC(C)=O)[C@@H]1C [RIFAMPIN],95.5%

# Same assay, conditions: Homo sapiens, Neuron; drug 10 μM 1 h before FeSO4 25 or 50 μM; MAP-2 neurons after 24 h; read-out: Drug % control (mean): number of neurons normalized to untreated control
row,SMILES,viability at 10 µM
1,CCC(=O)O[C@H]1[C@H](O[C@@H]2[C@@H](C)[C@H](O[C@H]3C[C@@](C)(OC)[C@@H](O)[C@H](C)O3)[C@@H](C)C(=O)O[C@H](CC)[C@@](C)(O)[C@H](O)[C@@H](C)C(=O)[C@H](C)C[C@@]2(C)O)O[C@H](C)C[C@@H]1N(C)C [ERYTHROMYCIN ESTOLATE],56.7%
2,NC(=O)N1c2ccccc2CC(=O)c2ccccc21 [OXCARBAZEPINE],38.2%
3,Clc1ccccc1C(c1ccccc1)(c1ccccc1)n1ccnc1 [CLOTRIMAZOLE],12.4%
4,CC(C(=O)O)c1cccc(C(=O)c2ccccc2)c1 (centres unmarked) [KETOPROFEN],44.3%
5,COc1ccc(C(CN(C)C)C2(O)CCCCC2)cc1 (centres unmarked) [VENLAFAXINE],72.5%
6,Cc1cnc(NC(=O)C2=C(O)c3ccccc3S(=O)(=O)N2C)s1 [MELOXICAM],59.5%
7,CN(C)C(=O)C(CCN1CCC(O)(c2ccc(Cl)cc2)CC1)(c1ccccc1)c1ccccc1 [LOPERAMIDE HYDROCHLORIDE],55.5%
8,CCOC(=O)[C@H](CCc1ccccc1)N[C@@H](C)C(=O)N1[C@H](C(=O)O)C[C@H]2CCCC[C@@H]21 [TRANDOLAPRIL],72.3%
9,CC[C@H]1OC(=O)[C@H](C)[C@@H](O[C@H]2C[C@@](C)(OC)[C@@H](O)[C@H](C)O2)[C@H](C)[C@@H](O[C@@H]2O[C@H](C)C[C@H](N(C)C)[C@H]2O)[C@](C)(O)C[C@@H](C)CN(C)[C@H](C)[C@@H](O)[C@]1(C)O [AZITHROMYCIN],56.8%
10,Nc1ccc(/N=N/c2ccccc2)c(N)n1 [PHENAZOPYRIDINE HYDROCHLORIDE],101%
11,Cc1cccc(Nc2ccccc2C(=O)O)c1C [MEFENAMIC ACID],57.2%
12,C[C@@H](CO)NC(=O)[C@@H]1C=C2c3cccc4[nH]cc(c34)C[C@H]2N(C)C1 [ERGONOVINE MALEATE],42.7%
13,NC[C@H]1CC[C@H](C(=O)O)CC1 [TRANEXAMIC ACID],36.3%
14,COCCOC(=O)C1=C(C)NC(C)=C(C(=O)OC(C)C)C1c1cccc([N+](=O)[O-])c1 (centres unmarked) [NIMODIPINE],62.8%
15,CC[C@H](C)[C@H](N)C1=N[C@H](C(=O)N[C@@H](CC(C)C)C(=O)N[C@H](CCC(=O)O)C(=O)N[C@H](C(=O)N[C@H]2CCCCNC(=O)[C@H](CC(N)=O)NC(=O)[C@@H](CC(=O)O)NC(=O)[C@H](Cc3cnc[nH]3)NC(=O)[C@@H](Cc3ccccc3)NC(=O)[C@H]([C@@H](C)CC)NC(=O)[C@@H](CCCN)NC2=O)[C@@H](C)CC)CS1 [BACITRACIN] ({Ileψ(thiazoline)Cys}-L[dE]IK[dOrn]I[dF]H[dD]N; lactam 4-C),5.04%
16,CCc1ccc(CCOc2ccc(CC3SC(=O)NC3=O)cc2)nc1 (centres unmarked) [PIOGLITAZONE HYDROCHLORIDE],84.6%
17,CC(NC(C)(C)C)C(=O)c1cccc(Cl)c1 (centres unmarked) [BUPROPION],55.5%
18,CC(C)(C)NC[C@H](O)COc1nsnc1N1CCOCC1 [TIMOLOL MALEATE],11.1%
19,NC(=O)C[S+]([O-])C(c1ccccc1)c1ccccc1 (centres unmarked) [MODAFINIL],43.9%
20,COc1ccc2c(c1)[C@]13CCCC[C@@H]1[C@H](C2)N(C)CC3 [DEXTROMETHORPHAN HYDROBROMIDE],3.49%
21,O=C1C(O)=C([C@H]2CC[C@H](c3ccc(Cl)cc3)CC2)C(=O)c2ccccc21 [ATOVAQUONE],67.7%
22,NS(=O)(=O)c1cc(C(=O)O)c(NCc2ccco2)cc1Cl [FUROSEMIDE],3.96%
23,O=C(O)Cc1ccccc1Nc1c(Cl)cccc1Cl [DICLOFENAC SODIUM],5.92%
24,CN(C)CCC(c1ccc(Br)cc1)c1ccccn1 (centres unmarked) [BROMPHENIRAMINE MALEATE],79.9%
25,NC(=O)c1cnccn1 [PYRAZINAMIDE],67.2%
26,CN1CCN(C2=Nc3ccccc3Oc3ccc(Cl)cc32)CC1 [LOXAPINE SUCCINATE],65.9%
27,CC(CCc1ccccc1)NC(C)C(O)c1ccc(O)cc1 (centres unmarked) [NYLIDRIN HYDROCHLORIDE],50.1%
28,C[C@H](CS)C(=O)N1CCC[C@H]1C(=O)O [CAPTOPRIL],35.3%

row,SMILES,viability at 10 µM
1,COc1ccccc1OCC(O)COC(N)=O (centres unmarked) [METHOCARBAMOL],0.84%
2,CN1CCN(CCCN2c3ccccc3Sc3ccc(C(F)(F)F)cc32)CC1 [TRIFLUOPERAZINE HYDROCHLORIDE],4.42%
3,CCCCNC(=O)NS(=O)(=O)c1ccc(C)cc1 [TOLBUTAMIDE],9.09%
4,CCOC(=O)N1CCC(=C2c3ccc(Cl)cc3CCc3cccnc32)CC1 [LORATADINE],44.3%
5,CC(C)NCC(O)COc1cccc2[nH]ccc12 (centres unmarked) [PINDOLOL],62.6%
6,OCCN1CCN(CCCN2c3ccccc3Sc3ccc(C(F)(F)F)cc32)CC1 [FLUPHENAZINE HYDROCHLORIDE],12.1%
7,NC[C@@H]1O[C@H](O[C@H]2[C@@H](O)[C@H](O[C@@H]3[C@@H](O)[C@H](N)C[C@H](N)[C@H]3O[C@H]3O[C@H](CO)[C@@H](O)[C@H](O)[C@H]3N)O[C@@H]2CO)[C@H](N)[C@@H](O)[C@@H]1O [PAROMOMYCIN SULFATE],35.3%
8,COc1c(C)c2c(c(O)c1C/C=C(\C)CCC(=O)O)C(=O)OC2 [MYCOPHENOLIC ACID],45.7%
9,CC1(C)NC(=O)N(c2ccc([N+](=O)[O-])c(C(F)(F)F)c2)C1=O [NILUTAMIDE],48.7%
10,CCCCCCCCCCC[C@@H](C[C@@H]1OC(=O)[C@H]1CCCCCC)OC(=O)[C@H](CC(C)C)NC=O [ORLISTAT],1%
11,C#C[C@]1(O)CC[C@H]2[C@@H]3CCC4=Cc5oncc5C[C@]4(C)[C@H]3CC[C@@]21C [DANAZOL],4.37%
12,CC(=O)CCCCn1c(=O)c2c(ncn2C)n(C)c1=O [PENTOXIFYLLINE],66.5%
13,CC(C(=O)O)c1ccc(-c2ccccc2)c(F)c1 (centres unmarked) [FLURBIPROFEN],4.63%
14,CCCCc1oc2ccccc2c1C(=O)c1cc(I)c(OCCN(CC)CC)c(I)c1 [AMIODARONE HYDROCHLORIDE],71.3%
15,O=C1[C@H](CC[C@H](O)c2ccc(F)cc2)[C@@H](c2ccc(O)cc2)N1c1ccc(F)cc1 [EZETIMIBE],50.5%
16,COC(=O)Nc1nc2ccc(C(=O)c3ccccc3)cc2[nH]1 [MEBENDAZOLE],2.48%
17,CC(=O)S[C@@H]1CC2=CC(=O)CC[C@]2(C)[C@H]2CC[C@@]3(C)[C@@H](CC[C@@]34CCC(=O)O4)[C@H]12 [SPIRONOLACTONE],37.1%
18,COc1ccc2cc(CCC(C)=O)ccc2c1 [NABUMETONE],48.9%
19,CCCc1nn(C)c2c(=O)[nH]c(-c3cc(S(=O)(=O)N4CCN(C)CC4)ccc3OCC)nc12,49.3%
20,CNCCCC12CCC(c3ccccc31)c1ccccc12 [MAPROTILINE HYDROCHLORIDE],0.61%
21,CC1(C)S[C@@H]2[C@H](NC(=O)[C@H](N)c3ccc(O)cc3)C(=O)N2[C@H]1C(=O)O [AMOXICILLIN],6.41%
22,CN/C(=N/CCSCc1nc[nH]c1C)NC#N [CIMETIDINE],34.4%
23,C[N+](C)(C)CCOC(N)=O [CARBACHOL],8.87%
24,O=c1n(CCCN2CCN(c3cccc(Cl)c3)CC2)nc2ccccn12 [TRAZODONE HYDROCHLORIDE],25.9%
25,CCCNC(=O)NS(=O)(=O)c1ccc(Cl)cc1 [CHLORPROPAMIDE],5.32%
26,Cc1ccc(C)c(OCCCC(C)(C)C(=O)O)c1 [GEMFIBROZIL],5.05%
27,Nc1cc(N2CCCCC2)nc(N)[n+]1[O-] [MINOXIDIL],33.7%

# Same assay, conditions: drug 10 μM 1 h before FeSO4 25 or 50 μM; MAP-2 neurons after 24 h
row,SMILES,Drug % control (mean): number of neurons normalized to untreated control
1,COc1ccc2cc([C@H](C)C(=O)O)ccc2c1 [NAPROXEN(+)],25.64%
2,CCOc1nc2cccc(C(=O)OC(C)OC(=O)OC3CCCCC3)c2n1Cc1ccc(-c2ccccc2-c2nn[nH]n2)cc1 (centres unmarked) [CANDESARTAN CILEXTIL],35.48%
